# In US10899754B2, “Modulators of indoleamine 2,3-dioxygenase” (GLAXOSMITHKLINE INTELLECTUAL PROPERTY DEVELOPMENT LIMITED, priority 2016, dated 2021):
# Where two headings read alike, the source gives them in different places.
# What was measured:
# ePL tagged IDO1 = biological target: T1, ePL tagged IDO1 (Homo sapiens, UniProt P14902); test: CETSA (Cellular Thermal Shifting assay) in Hela cells; assay type: binding; conditions: BacMam ePL tagged IDO1, 3 hours at 37° C., heated at 53° C. for 3 min
# T1 construct: expressed in transfected cells; host or cells: HeLa cells transduced with BacMam virus
# T1 sequence (P14902 whole entry): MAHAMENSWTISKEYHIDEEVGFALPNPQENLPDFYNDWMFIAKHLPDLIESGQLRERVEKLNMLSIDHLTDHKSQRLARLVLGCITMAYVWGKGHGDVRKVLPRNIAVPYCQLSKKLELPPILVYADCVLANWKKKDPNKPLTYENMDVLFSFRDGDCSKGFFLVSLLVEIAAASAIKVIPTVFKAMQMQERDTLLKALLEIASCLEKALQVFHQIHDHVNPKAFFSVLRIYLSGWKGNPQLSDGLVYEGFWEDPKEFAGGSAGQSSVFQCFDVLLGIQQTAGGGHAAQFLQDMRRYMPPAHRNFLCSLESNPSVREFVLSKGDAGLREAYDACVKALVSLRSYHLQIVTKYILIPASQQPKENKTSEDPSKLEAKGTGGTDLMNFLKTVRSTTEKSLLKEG
# Description: Cellular Thermal Shifting assays were used to directly monitor the ligand binding to target proteins in cells. Hela cells were transduced with BacMam virus expressing ePL tagged IDO1 overnight. The cells were then plated over the compounds for 3 hours at 37° C. in cell culture medium containing 1% FBS. The plates were then sealed and heated at 53° C. for 3 min. InCell Hunter reagents were added and luminescence was read in 90 min.
# [1] = biological target: indoleamine 2, 3-dioxygenase (IDO1) (Homo sapiens, UniProt P14902); test: IDO1 PBMC RapidFire MS assay (kynurenine detection by mass spectrometry); assay type: cell-based; design: to induce the expression of indoleamine 2, 3-dioxygenase (IDO1); host or cells: human PBMC stimulated with IFN-gamma and LPS; conditions: human PBMC stimulated with IFN-γ and LPS, 2 days, pIC50, read-out: PBMC PXC50 (converted)
# indoleamine 2, 3-dioxygenase (IDO1), sequence (P14902 whole entry): as above
# Method in brief: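 Kynurenine output, read by RapidFire mass spectrometry as ratio to an internal standard, was measured after 2-day compound exposure (11-point, 3-fold dilutions) of human PBMCs induced with 100 ng/ml IFN-γ and 50 ng/ml LPS. Cell viability tracked alongside via ATP luminescence; XC50 from curve fitting.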
SMILES,EC50 (ePL tagged IDO1; read-out: pXC50_1 (converted)),IC50 [1],EC50 (ePL tagged IDO1; read-out: pXC50_2 (converted))
"CC(C)CN(c1ccc([C@H](C)CC(=O)O)cc1Nc1nc(C(F)(F)F)ns1)C1CCOCC1 [Example 20, (R)-3-(4-(Isobutyl(tetrahydro-2H-pyran-4-yl)amino)-3-((3-(trifluoromethyl)-1,2,4-thiadiazol-5-yl)amino)phenyl)butanoic Acid]",9.55 nM,2.51 nM,–
"CC(C)CN(c1ccc([C@H](C)CC(=O)O)cc1Nc1nnc(C2CC2)s1)C1CCOCC1 [Example 23, (R)-3-(3-((5-cyclopropyl-1,3,4-thiadiazol-2-yl)amino)-4-(isobutyl (tetrahydro-2H-pyran-4-yl)amino)phenyl)butanoic Acid]",331 nM,3.16 nM,234 nM
